Laboratory results: patent publication US7037652B2, “Expression analysis of KIAA nucleic acids and polypeptides useful in the diagnosis and treatment of prostate cancer” (Wyeth, priority 2000, dated 2006)

Key:
[1] = test system: PSA expression in LNCaP cells; settings: 10 nM DHT, FIG. 3A
[2] = test system: KIAA 18 expression in LNCaP cells; settings: 10 nM DHT
[3] = test system: KIAA 96 expression in LNCaP cells; settings: 10 nM DHT, 24 hours, FIG. 3C
[4] = test system: Prostatic Acid Phosphatase (PAcP) in LNCaP; settings: cited from earlier work
LNCaP cells = settings: MTT assay, FIG. 1A
Description: Human prostatic cancer cell lines LNCaP, DU-145, PC-3, and Tsu-prl were obtained from ATCC. LNCaP cancer cells were maintained in humidified atmosphere of 5% CO2 in air in RPMI 1640 medium supplemented with 10% fetal calf serum (Life Technologies, Inc, Rockville, Md.), 3 mM L-glutamine, 100 μg/ml streptomycin and 100 units/ml penicillin. Other lines were maintained in DMEM containing 3 mM L-glutamine, 100 μg/ml streptomycin, 100 units/ml penicillin, and 10% FCS in humidified atmosphere of 5% CO2. To examine the effects of steroids, cells were cultured in RPMI 1640 medium containing 5% FCS treated with dextran coated charcoal (Hyclone, Logan, Utah) for 24 hs before treatment. Cells were grown in the absence or presence of 10 nM DHT for 0, 2, 4, 6, 12, 24, 48, and 72 hs. They were collected and frozen at each time point. Two hundred μl of medium were collected from each flask for PSA assay.
To verify the effect of DHT on the growth of LNCaP cells, cells at 3,000 cells/well were plated in 96-well plates for 24 hs before treatment with DHT. After 72 hs, MTT was added to each well and incubated at 37° C. for four hs. At the end of incubation, the supernatant was removed and 100 μl DMSO was added to each well to dissolve […]. Plates were subsequently read in a plate reader at […].

[5] = test system: PSA production of LNCaP cells

C[C@]12CCC(=O)C[C@@H]1CC[C@@H]1[C@@H]2CC[C@]2(C)[C@@H](O)CC[C@@H]12 [DHT, dihydrotestosterone]
PSA expression increase relative to control ([1]; 12 hours): 3 fold
PSA expression induction relative to control ([1]; 72 hours): approximately 4 fold
time at which KIAA 18 induction began [2]: 12 h
KIAA 18 over-expression relative to control ([2]; 24 hours, FIG. 3B): 2 fold
KIAA 18 induction relative to baseline ([2]; 72 hours): 3 fold
KIAA 96 expression down relative to baseline [3]: 6 fold
PAcP expression [4]: suppressed
growth of LNCaP cells (LNCaP cells): stimulated
PSA production [5]: increased in a dose-dependent manner
time at which PSA signal was first detected [5]: 12 h
time of maximal PSA level [5]: about 48 hs
